Where two headings read alike, the source gives them in different places.
Assays:
[1] = molecular target: mutant BRAF kinase (Homo sapiens (Human), UniProt P15056, V600E); conditions: read-out: BRAF V600E Kd, class symbols
[2] = system: panel of 290 distinct kinases (321 in the larger panel), excluding mutant variants
[3] = kinase selectivity score, 290 distinct kinases, class symbols
[4] = kinase selectivity score, value marked * (larger kinase panel), class symbols
[5] = no asterisk: panel of 290 distinct kinases
[6] = asterisk: panel of 321 distinct kinases

Chain of mutant BRAF kinase (P15056 whole entry V600E): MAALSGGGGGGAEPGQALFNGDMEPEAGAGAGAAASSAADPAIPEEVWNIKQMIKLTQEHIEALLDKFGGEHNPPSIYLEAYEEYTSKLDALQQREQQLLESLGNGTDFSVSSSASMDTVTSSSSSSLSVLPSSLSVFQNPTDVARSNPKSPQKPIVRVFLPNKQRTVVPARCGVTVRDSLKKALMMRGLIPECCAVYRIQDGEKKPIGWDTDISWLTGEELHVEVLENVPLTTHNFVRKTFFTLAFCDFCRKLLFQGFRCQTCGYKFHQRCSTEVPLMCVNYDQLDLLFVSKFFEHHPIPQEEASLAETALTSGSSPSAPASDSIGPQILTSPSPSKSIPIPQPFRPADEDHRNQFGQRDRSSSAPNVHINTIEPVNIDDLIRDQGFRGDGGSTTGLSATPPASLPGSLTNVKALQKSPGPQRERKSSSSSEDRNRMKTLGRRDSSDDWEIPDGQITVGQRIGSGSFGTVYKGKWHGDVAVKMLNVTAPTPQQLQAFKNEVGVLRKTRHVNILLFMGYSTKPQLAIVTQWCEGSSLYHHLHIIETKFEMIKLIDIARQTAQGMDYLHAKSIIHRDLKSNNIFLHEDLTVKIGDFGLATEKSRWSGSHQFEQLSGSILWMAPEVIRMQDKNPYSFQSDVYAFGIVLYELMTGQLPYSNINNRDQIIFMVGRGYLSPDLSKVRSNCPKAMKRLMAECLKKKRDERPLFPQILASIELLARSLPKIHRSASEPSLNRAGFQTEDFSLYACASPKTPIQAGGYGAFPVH

Compound	Kd [1] [nM]	S35 [2, 3]	further results
COc1cc2ncnc(Sc3cccc(NC(=O)Nc4cc(C(C)(C)C)on4)c3)c2cc1OCCN1CCN(C)CC1 [Ex 67, 1-(5-tert-butylisoxazol-3-yl)-3-(3-(7-methoxy-6-(2-(4-methylpiperazin-1-yl)ethoxy)quinazolin-4-ylthio)phenyl)urea]	< 250	C (0.20 < C ≦ 0.40)	
COc1cc2ncnc(Sc3cccc(NC(=O)Nc4cc(C(C)(C)C)nn4C)c3)c2cc1OC [Ex 157, 1-(3-tert-butyl-1-methyl-1H-pyrazol-5-yl)-3-(3-(6,7-dimethoxyquinazolin-4-ylthio)phenyl)urea]	< 250		S35 [2, 4]: C* (0.20 < C ≦ 0.40)
COc1cc2ncnc(Oc3cccc(NC(=O)Nc4cc(C(C)(F)F)no4)c3)c2cc1OC [Ex 152, 1-(3-(1,1-difluoroethyl)isoxazol-5-yl)-3-(3-(6,7-dimethoxyquinazolin-4-yloxy)phenyl)urea]	< 250		S35 [2, 4]: C* (0.20 < C ≦ 0.40)
COc1cc2c(Oc3cccc(NC(=O)Nc4cc(C(C)(C)C)on4)c3)ncnc2cc1OCCN1CCS(=O)(=O)CC1 [Ex 39, 1-(5-tert-butyl-isoxazol-3-yl)-3-(3-{7-[2-(1,1-dioxo-116-thiomorpholin-4-yl)-ethoxy]-6-methoxy-quinazolin-4-yloxy}-phenyl)-urea]	< 250	C (0.20 < C ≦ 0.40)	
COc1cc2c(Oc3cccc(NC(=O)Nc4cc(C(C)(C)C)on4)c3)ncnc2cc1O[C@H]1CCN(C)C1 [Ex 97, (S)-1-(5-tert-butylisoxazol-3-yl)-3-(3-(6-methoxy-7-(1-methylpyrrolidin-3-yloxy)quinazolin-4-yloxy)phenyl)urea mono acetate]	< 250	C (0.20 < C ≦ 0.40)	
COc1cc2ncnc(Sc3cccc(NC(=O)Nc4cc(C(C)(CF)CF)no4)c3)c2cc1OC [Ex 160, 1-[3-(1,3-difluoro-2-methylpropan-2-yl)isoxazol-5-yl]-3-[3-(6,7-dimethoxyquinazolin-4-ylthio]phenyl)urea]	< 250		S35 [2, 4]: C* (0.20 < C ≦ 0.40)
COc1cc2c(Sc3cccc(NC(=O)Nc4cc(C(C)(C)C)on4)c3)ncnc2cc1OCCCN1CCCCC1 [Ex 76, 1-(5-tert-butylisoxazol-3-yl)-3-(3-(6-methoxy-7-(3-(piperidin-1-yl)propoxy)quinazolin-4-ylthio)phenyl)urea]	< 250	D (D > 0.40)	
COc1cc2ncnc(Oc3cccc(NC(=O)Nc4ccc(Cl)c(C(F)(F)F)c4)c3)c2cc1OC [Ex 176, 1-(4-chloro-3-(trifluoromethyl)phenyl)-3-(3-(6,7-dimethoxyquinazolin-4-yloxy)phenyl)urea]	< 250	C (0.20 < C ≦ 0.40)	
COc1cc2ncnc(Sc3cccc(NC(=O)Nc4cc(C(C)(C)C)on4)c3)c2cc1OCCN1CCN(CCO)CC1 [Ex 68, 1-(5-tert-butylisoxazol-3-yl)-3-(3-(6-(2-(4-(2-hydroxyethyl)piperazin-1-yl)ethoxy)-7-methoxyquinazolin-4-ylthio)phenyl)urea]	< 250	C (0.20 < C ≦ 0.40)	
COc1cc2c(Oc3cccc(NC(=O)Nc4cc(C(C)(C)C)on4)c3)ncnc2cc1OCCCN1CCN(S(C)(=O)=O)CC1 [Ex 32, 1-(5-tert-butylisoxazol-3-yl)-3-(3-(6-methoxy-7-(3-(4-(methylsulfonyl)piperazin-1-yl)propoxy)quinazolin-4-yloxy)phenyl)urea]	< 250	D (D > 0.40)	
COCCOc1ccc2c(Oc3cccc(NC(=O)Nc4cc(C(C)(C)C)on4)c3)ncnc2c1 [Ex 43, 1-(5-tert-butylisoxazol-3-yl)-3-(3-(7-(2-methoxyethoxy)quinazolin-4-yloxy)phenyl)urea]	< 250	C (0.20 < C ≦ 0.40)	
CCOc1cc2c(Sc3cccc(NC(=O)Nc4cc(C(C)(C)C)on4)c3)ncnc2cc1OC [Ex 56, 1-(5-tert-butylisoxazol-3-yl)-3-(3-(6-ethoxy-7-methoxyquinazolin-4-ylthio)phenyl)urea]	< 250	B (0.10 < B ≦ 0.20)	
CC(C)(C)c1cc(NC(=O)Nc2cccc(Sc3ncnc4ccc(OCCCN5CCS(=O)(=O)CC5)cc34)c2)no1 [Ex 90, 1-(5-tert-butyl-isoxazol-3-yl)-3-(3-{6-[3-(1,1-dioxo-thiomorpholin-4-yl)-propoxy]-quinazolin-4-ylsulfanyl}-phenyl)-urea]	< 250	C (0.20 < C ≦ 0.40)	
COc1cc2ncnc(Oc3cccc(NC(=O)Nc4cc(C(C)(C)C)on4)c3)c2cc1OCCN1CCN(C)CC1 [Ex 18, 1-(5-tert-butylisoxazol-3-yl)-3-(3-(7-methoxy-6-(2-(4-methylpiperazin-1-yl)ethoxy)quinazolin-4-yloxy)phenyl)urea]	< 250	D (D > 0.40)	
COCCOc1cc2ncnc(Oc3cccc(NC(=O)Nc4cc(C(C)(C)C)no4)c3)c2cc1OC [Ex 202, 1-(3-tert-butylisoxazol-5-yl)-3-(3-(6-methoxy-7-(2-methoxyethoxy)quinazolin-4-yloxy)phenyl)urea]	< 250	C (0.20 < C ≦ 0.40)	
COc1cc2c(Sc3cccc(NC(=O)Nc4cc(C(C)(C)C)on4)c3)ncnc2cc1OCCCN1CCN(C)CC1 [Ex 73, 1-(5-tert-butylisoxazol-3-yl)-3-(3-(6-methoxy-7-(3-(4-methylpiperazin-1-yl)propoxy)quinazolin-4-ylthio)phenyl)urea]	< 250	D (D > 0.40)	

Compound	Kd [1] [nM]	S35 [2, 3]	further results
COc1cc2c(Sc3cccc(NC(=O)Nc4cc(C(C)(C)C)on4)c3)ncnc2cc1OCCN1CCCCC1 [Ex 80, 1-(5-tert-butylisoxazol-3-yl)-3-(3-(6-methoxy-7-(2-(piperidin-1-yl)ethoxy)quinazolin-4-ylthio)phenyl)urea]	< 250	C (0.20 < C ≦ 0.40)	
COc1cc2ncnc(Oc3cccc(NC(=O)Nc4cc(C(C)(C)C)on4)c3)c2cc1OC[C@H](O)CN1CCN(C)CC1 [Ex 112, (R)-1-(5-tert-butylisoxazol-3-yl)-3-(3-(6-(2-hydroxy-3-(4methylpiperazin-1-yl)propoxy)-7-methoxyquinazolin-4-yloxy)phenyl)urea]	< 250	D (D > 0.40)	
COc1cc2ncnc(Oc3cc(NC(=O)Nc4cc(C(F)(F)F)nn4-c4ccccc4)ccc3F)c2cc1OC [Ex 397, 1-(3-(6,7-Dimethoxyquinazolin-4-yloxy)-4-fluorophenyl)-3-(1-phenyl-3-(trifluoromethyl)-1H-pyrazol-5-yl)urea]			S35 [2, 5]: C (0.20 < C ≦ 0.40)
COc1cc2ncnc(Sc3cccc(NC(=O)Nc4cc(C5CCC5)nn4-c4ccccc4)c3)c2cc1OC [Ex 356, 1-(3-cyclobutyl-1-phenyl-1H-pyrazol-5-yl)-3-(3-(6,7-dimethoxyquinazolin-4-ylthio)phenyl)urea]			S35 [2, 5]: C (0.20 < C ≦ 0.40)
COCCOc1cc2ncnc(Sc3cccc(NC(=O)Nc4cc(C(C)(C)C)nn4-c4ccc(C)cc4C)c3)c2cc1OC [Ex 283, 1-(3-tert-butyl-1-(2,4-dimethylphenyl)-1H-pyrazol-5-yl)-3-(3-(6-methoxy-7-(2-methoxyethoxy)quinazolin-4-ylthio)phenyl)urea]			S35 [2, 5]: C (0.20 < C ≦ 0.40)
COc1cc2ncnc(Oc3cccc(NC(=O)Nc4cc(C(C)(C)C(F)(F)F)on4)c3)c2cc1O [Ex 264, 1-(3-(6-hydroxy-7-methoxyquinazolin-4-yloxy)phenyl)-3-(5-(1,1,1-trifluoro-2-methylpropan-2-yl)isoxazol-3-yl)urea]			S35 [2, 5]: C (0.20 < C ≦ 0.40)
CCOc1cc2c(Sc3cccc(NC(=O)Nc4cc(C(C)(CF)CF)on4)c3)ncnc2cc1OC [Ex 395, 1-(5-(1,3-difluoro-2-methylpropan-2-yl)isoxazol-3-yl)-3-(3-(6-ethoxy-7-methoxyquinazolin-4-ylthio)phenyl)urea]			S35 [2, 5]: C (0.20 < C ≦ 0.40)
COCCOc1cc2ncnc(Oc3cccc(NC(=O)Nc4ccc(C(F)(F)F)c(F)c4)c3)c2cc1OC [Ex 222, 1-(3-fluoro-4-(trifluoromethyl)phenyl)-3-(3-(6-methoxy-7-(2-methoxyethoxy)quinazolin-4-yloxy)phenyl)urea]			S35 [2, 6]: C* (0.20 < C ≦ 0.40)
COc1cc2ncnc(Sc3cccc(NC(=O)Nc4cc(C(C)(C)C)nn4-c4ccc(C(C)(C)C)cc4)c3)c2cc1OC [Ex 370, 1-(3-tert-butyl-1-(4-tert-butylphenyl)-1H-pyrazol-5-yl)-3-(3-(6,7-dimethoxyquinazolin-4-ylthio)phenyl)urea]			S35 [2, 5]: D (D > 0.40)
COc1cc(NC(=O)Nc2cccc(Sc3ncnc4cc(OC)c(OC)cc34)c2)cc(C(F)(F)F)c1 [Ex 115, 1-(3-(6,7-dimethoxyquinazolin-4-ylthio)phenyl)-3-(3-methoxy-5-(trifluoromethyl)phenyl)urea]		C (0.20 < C ≦ 0.40)	
COCCOc1cc2ncnc(Sc3cccc(NC(=O)Nc4cc(C(C)(C)C)nn4-c4cccc(C)c4)c3)c2cc1OC [Ex 287, 1-(3-tert-butyl-1-m-tolyl-1H-pyrazol-5-yl)-3-(3-(6-methoxy-7-(2-methoxyethoxy)quinazolin-4-ylthio)phenyl)urea]			S35 [2, 5]: D (D > 0.40)
COc1cc2ncnc(Oc3cccc(NC(=O)Nc4cc(C(C)(C)C#N)no4)c3)c2cc1OC [Ex 125, 1-(3-(2-cyanopropan-2-yl)isoxazol-5-yl)-3-(3-(6,7-dimethoxyquinazolin-4-yloxy)phenyl)urea]			S35 [2, 4]: C* (0.20 < C ≦ 0.40)
CCOc1cc2c(Oc3cccc(NC(=O)Nc4cc(C(F)(F)F)nn4-c4ccccc4)c3)ncnc2cc1OC [Ex 391, 1-(3-(6-ethoxy-7-methoxyquinazolin-4-yloxy)phenyl)-3-(1-phenyl-3-(trifluoromethyl)-1H-pyrazol-5-yl)urea]			S35 [2, 5]: C (0.20 < C ≦ 0.40)
COCCOc1cc2ncnc(Oc3cccc(NC(=O)Nc4cc(C(C)C)no4)c3)c2cc1OC [Ex 215, 1-(3-isopropylisoxazol-5-yl)-3-(3-(6-methoxy-7-(2-methoxyethoxy)quinazolin-4-yloxy)phenyl)urea]			S35 [2, 6]: C* (0.20 < C ≦ 0.40)
COc1ccc(-n2nc(C(C)(C)C)cc2NC(=O)Nc2cccc(Sc3ncnc4cc(OC)c(OC)cc34)c2)cc1 [Ex 362, 1-(3-tert-butyl-1-(4-methoxyphenyl)-1H-pyrazol-5-yl)-3-(3-(6,7-dimethoxyquinazolin-4-ylthio)phenyl)urea]			S35 [2, 5]: D (D > 0.40)
